According to PMC3816693, “Cell Penetration Properties of a Highly Efficient Mini Maurocalcine Peptide” (Pharmaceuticals, 2013):
Bridges are numbered along the chain shown (N, C = ends). Where no end group is shown, it is not given here.

Key:
[1] = system: glioma F98 cells; experiment: Cell penetration of Cy5-labeled peptides by flow cytometry (FACS); assay type: cell-based, rat; conditions: 2 h; for fold decrease in cell penetration efficacy relative to MCaUF1-9-C-Cy5: 3 µM, flow cytometry
Procedure: Undifferentiated malignant glioma rat (F98) cell line (from ATCC) was maintained at 37 °C in 5% CO2 in DMEM/F-12 nutrient medium (Invitrogen, Cergy Pontoise, France) supplemented with 2% (v/v) heat-inactivated fetal bovine serum (Invitrogen) and 100 µg/mL streptomycine and 100 units/mL penicillin (Invitrogen).
F98 cells were incubated with various concentrations of Cy5-labeled peptides in DMEM/F-12 culture medium without serum at 37 °C for 2 h. The cells were then washed with PBS to remove excess extracellular peptide and treated with 0.48 mM versene (Invitrogen) for 5 min at 37 °C to detach cells from the surface, and centrifuged at 200 g in DMEM/F-12 culture medium before suspension in PBS. For experiments concerning endocytosis inhibitors, F98 cells were initially preincubated in DMEM/F-12 culture medium without serum for 30 min at 37 °C with different inhibitors of endocytosis: (i) 100 µM amiloride, (ii) 5 µg/mL cytochalasin D (10 µM), (iii) 20 µM nocodazole, or (iv) 5 mM methyl-β-cyclodextrin (all from Sigma, Lyon, France). The cells were then incubated for 2 h at 37 °C with 1 µM MCaUF1-9-C-Cy5 in the presence of each drug. Flow cytometry analyses were performed with live cells using an Accuri C6 flow cytometer (BD Biosciences, Le Pont de Claix, France). Data were obtained and analyzed using CFlow Sampler (BD Biosciences). Live cells were gated by forward/side scattering from a total of 10,000 events.

[2] = cited from earlier work
Description: Even if the mechanism(s) of penetration of CPP are subject to debate, because of the rapidity of action of MCa on the ryanodine receptor, it appears clearly that one way of penetration of MCa can be membrane translocation. Furthermore, MCa has the ability to bind onto glycosaminoglycans, including heparin and heparan sulfates, with micromolar affinity.

[3] = high temperatures up to 100 °C or extreme pH values; cited from earlier work
Description: Maurocalcine (MCa) is a 33 amino acid residue peptide that was isolated in 2000 from the venom of the Tunisian chactid scorpion Scorpio maurus palmatus. It folds according to an ‘Inhibitor Cystine Knot’ (ICK) motif and contains three disulfide bridges connected by the following pattern: C1-C4, C2-C5 and C3-C6 [3]. Based on high amino acid sequence and pharmacological target similarities, MCa belongs to a larger family of scorpion toxins that also includes imperatoxin A (from Pandinus imperator), opicalcine 1 and opicalcine 2 (from Opistophthalmus carinatus), hemicalci ...

Row | Substance | fold decrease in cell penetration efficacy relative to MCaUF1-9-C-Cy5 [1] | cell penetration compared with TAT-C-Cy5 as standard ([1]; dose-response by flow cytometry) | affinity of binding onto glycosaminoglycans [2] | stability of structure against denaturation [3]
1 | MCaUF1-9(A3)-C-Cy5: Abu3 replaced by Ala | 1.08 fold |  |  | 
2 | MCaUF1-9(Q3)-C-Cy5: Abu3 replaced by Gln | 2.94 fold | behaved similarly to TAT |  | 
3 | Maurocalcine (GDCLPHLKLCKENKDCCSKKCKRRGTNIEKRCR; disulfide 10-21, 16-32, 3-17; UniProt P60254 1-33, looked up) [MCa] |  |  | micromolar | cannot be denatured
